Data set [1] deals with T1, human CYP2C9 (Homo sapiens, UniProt P11712). Particulars: for CYP2C9 Efficacy (in parenthesis): human.
The target of a further data set is CYP3A4 (Homo sapiens, UniProt P08684).
Data set [2] deals with T2, human CYP2C19 (Homo sapiens, UniProt P33261). Particulars: for CYP2C19 Efficacy (in parenthesis): human.
The target of the next data set is human CYP2D6 (Homo sapiens, UniProt P10635).
The target of data set [3] is T3, human CYP1A2 (Homo sapiens, UniProt P05177).
T3 sequence (P05177 1-516): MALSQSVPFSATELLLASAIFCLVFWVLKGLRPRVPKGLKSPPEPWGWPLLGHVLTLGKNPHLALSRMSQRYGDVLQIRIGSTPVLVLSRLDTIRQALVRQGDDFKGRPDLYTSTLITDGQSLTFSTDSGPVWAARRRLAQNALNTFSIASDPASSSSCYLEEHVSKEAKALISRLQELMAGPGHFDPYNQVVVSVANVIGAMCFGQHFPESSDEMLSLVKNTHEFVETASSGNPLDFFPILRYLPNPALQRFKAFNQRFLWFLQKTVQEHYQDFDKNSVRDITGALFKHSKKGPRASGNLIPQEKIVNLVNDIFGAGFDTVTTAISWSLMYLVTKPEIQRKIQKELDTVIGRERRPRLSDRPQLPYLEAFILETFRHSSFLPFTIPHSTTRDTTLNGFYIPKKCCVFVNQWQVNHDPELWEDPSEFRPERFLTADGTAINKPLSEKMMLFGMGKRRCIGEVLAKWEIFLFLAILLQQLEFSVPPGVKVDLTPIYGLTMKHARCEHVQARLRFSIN
To be noted: for CYP1A2 Efficacy (in parenthesis): human.

Data set [4] has as its target T2, human CYP2C19. The experiment in a line: biochemical.
Data set [5] deals with T3, human CYP1A2. The experiment in a line: biochemical.
For data set [6], the target named is T1, human CYP2C9. The experiment in a line: biochemical.
[7] abbreviates: CYP2C19 AC50 (half-maximal activity concentration).
The mark [8] stands for this setting: CYP2C9 AC50 (half-maximal activity concentration).
Setting [9] is: CYP1A2 AC50 (half-maximal activity concentration).
Where [10] appears, read: CYP2C19 IC50 (half-maximal inhibitory concentration).
The mark [11] stands for this setting: CYP1A2 IC50 (half-maximal inhibitory concentration).
Setting [12] is: CYP2C9 IC50 (half-maximal inhibitory concentration).

The structures appear in SMILES notation. Counter-ions that a name gives are not always drawn. Like-named read-outs stand apart in the source and are kept apart here.

As usually defined, the AC50 is the concentration giving half of the maximal activity seen. Low values mean activity at low concentration, high ones activity only at high concentration. As a reminder, the IC50 is the concentration at which inhibition is half-maximal. A low value points to greater potency.

Sequence of CYP3A4 (P08684 whole entry): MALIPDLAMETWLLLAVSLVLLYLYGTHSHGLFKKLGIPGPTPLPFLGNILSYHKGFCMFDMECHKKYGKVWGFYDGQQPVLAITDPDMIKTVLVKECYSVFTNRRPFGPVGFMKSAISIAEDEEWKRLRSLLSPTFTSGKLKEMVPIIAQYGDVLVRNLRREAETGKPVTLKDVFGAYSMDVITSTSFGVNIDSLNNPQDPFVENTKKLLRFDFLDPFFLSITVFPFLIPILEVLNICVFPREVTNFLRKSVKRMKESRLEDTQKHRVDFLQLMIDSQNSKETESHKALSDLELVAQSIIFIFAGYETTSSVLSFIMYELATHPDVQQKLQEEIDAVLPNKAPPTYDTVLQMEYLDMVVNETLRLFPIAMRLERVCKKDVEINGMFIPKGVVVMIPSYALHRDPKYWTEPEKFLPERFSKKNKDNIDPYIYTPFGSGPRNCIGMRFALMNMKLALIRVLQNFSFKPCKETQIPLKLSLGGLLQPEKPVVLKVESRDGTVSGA
T1 sequence (P11712 whole entry): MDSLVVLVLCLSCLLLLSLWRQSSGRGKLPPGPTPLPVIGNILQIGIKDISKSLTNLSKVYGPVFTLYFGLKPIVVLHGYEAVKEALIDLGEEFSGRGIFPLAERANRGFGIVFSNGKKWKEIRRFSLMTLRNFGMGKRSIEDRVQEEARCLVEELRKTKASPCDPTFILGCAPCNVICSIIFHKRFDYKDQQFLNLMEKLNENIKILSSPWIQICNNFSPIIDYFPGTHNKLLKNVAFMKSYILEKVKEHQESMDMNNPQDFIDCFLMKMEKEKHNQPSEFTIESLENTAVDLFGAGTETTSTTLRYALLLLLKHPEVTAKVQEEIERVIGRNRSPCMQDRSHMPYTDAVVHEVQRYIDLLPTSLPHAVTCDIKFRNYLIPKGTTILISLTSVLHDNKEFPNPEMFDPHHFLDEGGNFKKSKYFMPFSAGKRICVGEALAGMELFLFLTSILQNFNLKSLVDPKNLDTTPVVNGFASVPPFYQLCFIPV
T2 sequence (P33261 whole entry): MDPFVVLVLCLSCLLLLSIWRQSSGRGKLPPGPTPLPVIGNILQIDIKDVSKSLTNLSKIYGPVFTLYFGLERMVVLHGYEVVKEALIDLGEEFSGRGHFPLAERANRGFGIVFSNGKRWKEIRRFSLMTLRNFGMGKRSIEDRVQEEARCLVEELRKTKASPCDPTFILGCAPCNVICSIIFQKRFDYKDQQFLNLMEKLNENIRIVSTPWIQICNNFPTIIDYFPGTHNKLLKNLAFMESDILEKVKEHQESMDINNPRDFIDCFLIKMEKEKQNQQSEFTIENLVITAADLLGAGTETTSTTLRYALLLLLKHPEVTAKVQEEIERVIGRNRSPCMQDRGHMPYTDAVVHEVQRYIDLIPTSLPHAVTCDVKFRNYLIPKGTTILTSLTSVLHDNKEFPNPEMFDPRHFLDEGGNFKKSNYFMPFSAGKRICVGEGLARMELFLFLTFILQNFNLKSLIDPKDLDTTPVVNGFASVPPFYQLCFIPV
Sequence of human CYP2D6 (P10635 whole entry): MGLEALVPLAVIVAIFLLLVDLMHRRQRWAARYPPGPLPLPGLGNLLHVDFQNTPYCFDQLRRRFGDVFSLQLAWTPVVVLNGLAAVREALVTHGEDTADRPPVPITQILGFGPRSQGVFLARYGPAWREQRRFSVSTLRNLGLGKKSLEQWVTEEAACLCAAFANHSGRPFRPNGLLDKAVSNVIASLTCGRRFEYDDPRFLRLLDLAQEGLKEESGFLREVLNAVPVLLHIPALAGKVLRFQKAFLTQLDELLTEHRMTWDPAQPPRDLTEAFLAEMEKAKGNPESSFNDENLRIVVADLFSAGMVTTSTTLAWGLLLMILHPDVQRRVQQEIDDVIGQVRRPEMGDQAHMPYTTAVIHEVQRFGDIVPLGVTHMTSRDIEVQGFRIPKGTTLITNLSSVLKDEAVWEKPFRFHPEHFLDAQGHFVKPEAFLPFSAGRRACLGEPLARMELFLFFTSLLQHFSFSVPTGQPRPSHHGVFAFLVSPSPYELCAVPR

As to `CC(C)(C)C(=O)C=Cc1ccc(Cl)cc1`, the AC50 on human CYP2C9 [1] stood at 54 µM; on CYP3A4, 20 µM; at human CYP2C19 [2], 6.98 µM; on human CYP1A2 [3], 21.2 µM. Besides, on human CYP2D6, the “CYP2D6 AC50 (half-maximal activity concentration)” value (from here on “CYP2D6 AC50”) is “Inactive”.
In the case of `CC(=O)c1cc(C(C)(C)C)cc2c1CCC2(C)C`, the AC50 at human CYP2C9 [1] was found to be 27.6 µM; on CYP3A4 it was 10.5 µM; on human CYP1A2 [3], 34.4 µM. In addition, the “CYP2C19 AC50 (half-maximal activity concentration)” value (“CYP2C19 AC50” for short) on human CYP2C19 [2] was “Inconclusive”. Besides, the “CYP2D6 AC50” value on human CYP2D6 was “Inactive”.
As to `CC(C)(c1ccc(Oc2ccc3c(c2)C(=O)OC3=O)cc1)c1ccc(Oc2ccc3c(c2)C(=O)OC3=O)cc1`, at human CYP2C9 [1], the “CYP2C9 AC50 (half-maximal activity concentration)” value is “Inconclusive inhibitor”. Also, the AC50 was 23.4 µM on CYP3A4, 37.9 µM on human CYP2D6 and 63.2 µM at human CYP1A2 [3]. Further, the “CYP2C19 AC50” value on human CYP2C19 [2] is recorded as “Inconclusive inhibitor”.
In the case of `C=C(C)C(=O)OCC[N+](C)(C)C.[Cl-]`, on human CYP2C9 [1], the “CYP2C9 AC50 (half-maximal activity concentration)” value is given as “Inactive”. For the same compound, the half-maximal activity concentration (AC50) amounted to 23.4 µM on CYP3A4 and 10.5 µM at human CYP1A2 [3]. Also, the “CYP2C19 AC50” value at human CYP2C19 [2] is listed as “Inactive”. Moreover, the “CYP2D6 AC50” value on human CYP2D6 is given as “Inactive”.
As for `O=[N+]([O-])c1cccc2cccc([N+](=O)[O-])c12` [1,8-Dinitronaphthalene], on CYP3A4, the “CYP3A4 AC50 (half-maximal activity concentration)” value (shortened to “CYP3A4 AC50”) was “Inconclusive inhibitor”. In addition, the “CYP2D6 AC50” value on human CYP2D6 was “Inconclusive inhibitor”.
On to `Cc1cc(O)c(Cl)c(C)c1Cl` [2,4-Dichloro-3,5-dimethylphenol], for which the figures for the AC50 on human CYP2C19 [4], on human CYP1A2 [5] and at human CYP2C9 [6] were 71.9 µM, 14.4 µM and 9.3 µM, respectively. In addition, the “CYP2D6 AC50” value at human CYP2D6 was “Inactive”.
Regarding `O=S(=O)(c1ccc(O)cc1)c1ccc(O)cc1` [4,4'-Sulfonyldiphenol], the “CYP3A4 AC50” value on CYP3A4 was “Inactive”. Also, the values for the AC50 at human CYP2C19 [4] (setting [7]) and on human CYP2C9 [6] (setting [8]) were 16.4 µM and 1.34 µM, respectively. Moreover, on human CYP2D6, the “CYP2D6 AC50” value was “Inactive”. On human CYP1A2 [3], the “CYP1A2 AC50 (half-maximal activity concentration)” value (from here on “CYP1A2 AC50”) is recorded as “Inconclusive inhibitor”.
For `CC(=O)c1ccc(O)cc1` [4-Hydroxyacetophenone], the “CYP3A4 AC50” value at CYP3A4 is “Inactive”. In addition, at human CYP2C19 [2], the “CYP2C19 AC50” value is recorded as “Inactive”. Also, the “CYP2D6 AC50” value at human CYP2D6 is “Inactive”. For the same compound, the “CYP1A2 AC50” value on human CYP1A2 [3] was “Inconclusive inhibitor”. Moreover, the AC50 on human CYP2C9 [6] is 36.2 µM.
Regarding `O=C(OCc1ccccc1)c1ccccc1` [Benzyl benzoate], the AC50 at human CYP2C19 [4] (setting [7]) came to 21.3 µM; at human CYP1A2 [5] (setting [9]), 14.9 µM; at human CYP2C9 [6] (setting [8]), 27.7 µM.
For the compound `NS(=O)(=O)c1cc2c(cc1Cl)CN(C1CCCCC1)C2=O` [Chlorexolone], the “CYP3A4 AC50” value at CYP3A4 is given as “Inactive”. Moreover, the “CYP2C19 AC50” value on human CYP2C19 [2] is reported as “Inconclusive activator”. Also, the “CYP2D6 AC50” value at human CYP2D6 is reported as “Inactive”. In addition, the “CYP1A2 AC50” value on human CYP1A2 [3] is “Inactive”. On human CYP2C9 [6] (setting [8]), this compound displayed a half-maximal activity concentration (AC50) of 14.4 µM.
Consider `O=C(Nc1ccc(Cl)c(Cl)c1)C1CC1` [Cypromid], for which the “CYP2C9 Efficacy (in parenthesis)” value on human CYP2C9 [1] is listed as 25.27 ± 7.04 (-70 ± 11) %. The IC50 against human CYP2C19 [4] (setting [10]) amounted to 12.1 µM; at human CYP1A2 [5] (setting [11]), 0.54 µM; against human CYP2C9 [6] (setting [12]) it was 25.3 µM. Moreover, the “CYP2C19 Efficacy (in parenthesis)” value on human CYP2C19 [2] is listed as 12.07 ± 3.02 (-106 ± 21) %. Also, the “CYP1A2 Efficacy (in parenthesis)” value on human CYP1A2 [3] was 0.54 ± 0.08 (-97 ± 6) %.
As for `O=C1c2ccccc2CCc2ccccc21` [Dibenzosuberone], the half-maximal activity concentration (AC50) at human CYP2C19 [4] turned out to be 8.39 µM; on human CYP1A2 [5] it was 1.58 µM; at human CYP2C9 [6], 33.4 µM.
With `C[C@]12CC[C@@H]3c4ccc(O)cc4CC[C@H]3[C@@H]1CC[C@@H]2OC(=O)CCC1CCCC1` [Estradiol cypionate], the AC50 at human CYP2C19 [4] (setting [7]) stood at 26 µM; at human CYP1A2 [5] (setting [9]), 16.6 µM; at human CYP2C9 [6] (setting [8]), 16.1 µM.
In the case of `CNCCC(Oc1ccc(C(F)(F)F)cc1)c1ccccc1` (centres unmarked) [Fluoxetine hydrochloride], the IC50 at human CYP1A2 [5] (setting [11]) was 20.9 µM; against human CYP2C9 [6] (setting [12]), 34.2 µM.
On to `NS(=O)(=O)c1cc2c(cc1Cl)NCNS2(=O)=O` [Hydrochlorothiazide], for which the “CYP3A4 AC50” value on CYP3A4 was “Inactive”. Further, the “CYP2C19 AC50” value at human CYP2C19 [2] is listed as “Inactive”. In addition, at human CYP2D6, the “CYP2D6 AC50” value was “Inactive”.
For the compound `CC(C)Oc1ccc2c(=O)c(-c3ccccc3)coc2c1` [Ipriflavone], the AC50 at human CYP1A2 [5] (setting [9]) stood at 11.6 µM; at human CYP2C9 [6] (setting [8]) it was 20.1 µM.
`Cc1cc2c(cc1S(N)(=O)=O)S(=O)(=O)CCC2` [Meticrane]: on CYP3A4, the “CYP3A4 AC50” value is on record as “Inactive”. Moreover, the “CYP2C19 AC50” value at human CYP2C19 [2] is recorded as “Inactive”. Moreover, the “CYP2D6 AC50” value at human CYP2D6 is “Inactive”. For the same compound, the “CYP1A2 AC50” value at human CYP1A2 [3] was “Inactive”. Further, on human CYP2C9 [6], the activity was half-maximal at 8.15 ± 1.47 µM (AC50).
For the compound `CCOc1cc(N)c(Cl)cc1C(=O)NCC1CN(Cc2ccc(F)cc2)CCO1` (centres unmarked) [Mosapride citrate], the IC50 at human CYP2C19 [4] (setting [10]) was found to be 9 µM; at human CYP1A2 [5] (setting [11]) it was 1.14 µM.
Turning to `COc1ccnc2c1CCCCC2[S+]([O-])c1nc2ccccc2[nH]1` (centres unmarked) [Nepaprazole], the IC50 against human CYP2C19 [4] turned out to be 8.96 ± 4.72 µM; at human CYP1A2 [5], 14.9 ± 0.97 µM; against human CYP2C9 [6], 13.9 ± 1.59 µM.
Turning to `O=C(NOCC1CC1)c1ccc(F)c(F)c1Nc1ccc(I)cc1Cl` [PD-184352], the IC50 against human CYP2C19 [4] amounted to 0.39 ± 0.13 µM; against human CYP1A2 [5] it was 14.4 ± 0.97 µM; against human CYP2C9 [6], 0.68 ± 0.17 µM.
Consider `CCC(=O)c1ccc(O)cc1` [Paroxypropione], for which the “CYP3A4 AC50” value at CYP3A4 was “Inactive”. The “CYP2C19 AC50” value at human CYP2C19 [2] was “Inactive”. Also, the “CYP2D6 AC50” value at human CYP2D6 is listed as “Inactive”. Further, on human CYP1A2 [3], the “CYP1A2 AC50” value is reported as “Inconclusive inhibitor”. The AC50 on human CYP2C9 [6] (setting [8]) stood at 15.6 µM.
Take `CCCOC(=O)c1cncn1C(C)c1ccccc1` (centres unmarked) [Propoxate]: the IC50 against human CYP2C19 [4] (setting [10]) amounted to 3.09 µM; against human CYP1A2 [5] (setting [11]) it was 18.9 µM; against human CYP2C9 [6] (setting [12]), 13.3 µM.
With `Cc1cc(C)nc(NS(=O)(=O)c2ccc(N)cc2)n1` [Sulfamethazine], the “CYP3A4 AC50” value at CYP3A4 was “Inactive”. The “CYP2C19 AC50” value at human CYP2C19 [2] is given as “Inactive”. Further, the “CYP2D6 AC50” value at human CYP2D6 is given as “Inactive”. Further, at human CYP1A2 [3], the “CYP1A2 AC50” value is on record as “Inconclusive inhibitor”. Also, the activity at human CYP2C9 [6] (setting [8]) was half-maximal at 54.8 µM (AC50).
Take `O=C1OC(OC(=O)c2cccnc2Nc2cccc(C(F)(F)F)c2)c2ccccc21` (centres unmarked) [Talniflumate]: the concentration at half-maximal activity (AC50) on human CYP1A2 [5] was 10 ± 5.3 µM; at human CYP2C9 [6], 5.56 ± 2.56 µM.
In the case of `CCCCCNC(=N)N/N=C/c1c[nH]c2ccc(OC)cc12` [Tegaserod maleate], the AC50 turned out to be 4.12 ± 0.93 µM on human CYP1A2 [5] and 33.3 ± 14 µM on human CYP2C9 [6].
On to `CN(C)C(=S)SC(=S)N(C)C` [Tetramethylthiuram monosulfide], for which the AC50 at human CYP2C19 [4] (setting [7]) was found to be 22.8 µM; on human CYP1A2 [5] (setting [9]), 41.9 µM; on human CYP2C9 [6] (setting [8]) it was 24.3 µM.
Regarding `Cc1c(Cl)cccc1Nc1ccccc1C(=O)O` [Tolfenamic acid], the AC50 turned out to be 34.8 µM at human CYP1A2 [5] (setting [9]) and 21 µM on human CYP2C9 [6] (setting [8]).
Take `Clc1ccc(C(c2ccc(Cl)cc2)C(Cl)(Cl)Cl)cc1` [p,p'-DDT]: on human CYP2C9 [1], the “CYP2C9 Efficacy (in parenthesis)” value was 4.33 ± 1.82 (-100 ± 9) %. Besides, the figures for the IC50 against human CYP2C19 [4] (setting [10]), on human CYP1A2 [5] (setting [11]) and at human CYP2C9 [6] (setting [12]) were 0.04 µM, 9.36 µM and 4.33 µM, respectively. At human CYP2C19 [2], the “CYP2C19 Efficacy (in parenthesis)” value is on record as 0.04 ± 0.02 (-132 ± 4) %. Moreover, the “CYP1A2 Efficacy (in parenthesis)” value at human CYP1A2 [3] is recorded as 9.36 ± 3.19 (-74 ± 16) %.

Values taken from PMC12155096 (International Journal of Molecular Sciences, 2025).
